# Test system: MV-4-11 cells
# Experiment: Gene expression microarray analysis (Affymetrix PrimeView) and GSEA
# Type: cell-based, human
# Design: RFU PODN (11730768_x_at) / Fold change /veh PODN (11730768_x_at) / RFU LINC00158 (11744669_a_at) / Fold change /veh LINC00158 (11744669_a_at) / RFU DUSP10 (11751237_a_at) / Fold change /veh DUSP10 (11751237_a_at) / RFU ID3 (11757404_x_at) / Fold change /veh ID3 (11757404_x_at) / RFU PLEKHG5 (11737974_s_at) / Fold change /veh PLEKHG5 (11737974_s_at) / RFU LRRC4B (11730491_at) / Fold change /veh LRRC4B (11730491_at) / RFU GIMAP4 (11747438_a_at) / Fold change /veh GIMAP4 (11747438_a_at) / RFU KRT8 (11758183_x_at) / Fold change /veh KRT8 (11758183_x_at) / RFU CNN1 (11734310_a_at) / Fold change /veh CNN1 (11734310_a_at) / RFU VPS37D (11726825_at) / Fold change /veh VPS37D (11726825_at) / RFU C10orf10 (11716522_x_at) / Fold change /veh C10orf10 (11716522_x_at) / RFU KIR2DL2 /// KIR2DL4 /// KIR2DL5A /// KIR2DL5B /// KIR2DS1 /// KIR2DS2 /// KIR2DS3 /// KIR2DS4 /// KIR3DL3 /// KIR3DL3 /// KIR3DS1 (11738374_at) / Fold change /veh KIR2DL2 /// KIR2DL4 /// KIR2DL5A /// KIR2DL5B /// KIR2DS1 /// KIR2DS2 /// KIR2DS3 /// KIR2DS4 /// KIR3DL3 /// KIR3DL3 /// KIR3DS1 (11738374_at) / RFU C1QL1 (11718748_at) / Fold change /veh C1QL1 (11718748_at) / RFU TMPRSS4 (11747572_a_at) / Fold change /veh TMPRSS4 (11747572_a_at) / RFU HAMP (11756126_x_at) / Fold change /veh HAMP (11756126_x_at) / RFU RNFT2 (11725882_a_at) / Fold change /veh RNFT2 (11725882_a_at) / RFU NR4A2 (11747474_a_at) / Fold change /veh NR4A2 (11747474_a_at) / RFU ABCC12 (11746883_a_at) / Fold change /veh ABCC12 (11746883_a_at) / RFU TMEM136 (11760407_x_at) / Fold change /veh TMEM136 (11760407_x_at) / RFU CLDN22 /// WWC2 (11732394_at) / Fold change /veh CLDN22 /// WWC2 (11732394_at) / RFU HLA-DPB1 (11760878_x_at) / Fold change /veh HLA-DPB1 (11760878_x_at) / RFU SPINT1 (11716480_a_at) / Fold change /veh SPINT1 (11716480_a_at) / RFU GAP43 (11754022_s_at) / Fold change /veh GAP43 (11754022_s_at) / RFU A4GNT (11735810_at) / Fold change /veh A4GNT (11735810_at) / RFU PRB3 (11715151_x_at) / Fold change /veh PRB3 (11715151_x_at) / RFU TUBB4B (11761932_at) / Fold change /veh TUBB4B (11761932_at) / RFU CAPN14 (11732068_a_at) / Fold change /veh CAPN14 (11732068_a_at) / RFU TMCC2 (11721928_a_at) / Fold change /veh TMCC2 (11721928_a_at) / RFU IRGQ (11745062_a_at) / Fold change /veh IRGQ (11745062_a_at) / RFU FAM174B (11720279_a_at) / Fold change /veh FAM174B (11720279_a_at) / RFU TMPRSS4 (11748680_a_at) / Fold change /veh TMPRSS4 (11748680_a_at) / RFU FAM212B (11763350_a_at) / Fold change /veh FAM212B (11763350_a_at) / RFU PLEKHG5 (11743358_a_at) / Fold change /veh PLEKHG5 (11743358_a_at) / RFU ZSCAN30 (11745921_a_at) / Fold change /veh ZSCAN30 (11745921_a_at) / RFU CMKLR1 (11741424_a_at) / Fold change /veh CMKLR1 (11741424_a_at) / RFU LOC101060620 /// MAPK8IP1 (11723275_at) / Fold change /veh LOC101060620 /// MAPK8IP1 (11723275_at) / RFU SPTSSB (11747773_x_at) / Fold change /veh SPTSSB (11747773_x_at) / RFU PRSS12 (11739890_at) / Fold change /veh PRSS12 (11739890_at) / RFU BIN1 (11741810_x_at) / Fold change /veh BIN1 (11741810_x_at) / RFU WNT11 (11732464_a_at) / Fold change /veh WNT11 (11732464_a_at) / RFU C10orf10 (11716521_a_at) / Fold change /veh C10orf10 (11716521_a_at) / RFU C5orf56 (11738089_at) / Fold change /veh C5orf56 (11738089_at) / RFU CYB561 (11721691_x_at) / Fold change /veh CYB561 (11721691_x_at) / RFU ANKRD19P (11752326_a_at) / Fold change /veh ANKRD19P (11752326_a_at) / RFU OR2T12 /// OR2T33 /// OR2T8 (11738714_s_at) / Fold change /veh OR2T12 /// OR2T33 /// OR2T8 (11738714_s_at) / RFU VCAN (11748164_a_at) / Fold change /veh VCAN (11748164_a_at) / RFU JSRP1 (11732532_at) / Fold change /veh JSRP1 (11732532_at) / RFU KRTAP10-11 (11738290_x_at) / Fold change /veh KRTAP10-11 (11738290_x_at) / RFU MYO3A (11730013_a_at) / Fold change /veh MYO3A (11730013_a_at) / RFU EBF3 (11725865_a_at) / Fold change /veh EBF3 (11725865_a_at) / RFU CAMK2N1 (11719241_x_at) / Fold change /veh CAMK2N1 (11719241_x_at) / RFU C5orf56 (11738088_a_at) / Fold change /veh C5orf56 (11738088_a_at) / RFU OLFML3 (11715873_a_at) / Fold change /veh OLFML3 (11715873_a_at) / RFU LOC100653217 /// NTM (11731650_a_at) / Fold change /veh LOC100653217 /// NTM (11731650_a_at) / RFU MAPK11 (11762145_a_at) / Fold change /veh MAPK11 (11762145_a_at) / RFU FIZ1 (11724087_x_at) / Fold change /veh FIZ1 (11724087_x_at) / RFU OASL (11726364_x_at) / Fold change /veh OASL (11726364_x_at) / RFU SOX15 (11748057_x_at) / Fold change /veh SOX15 (11748057_x_at) / RFU CD79A (11719716_a_at) / Fold change /veh CD79A (11719716_a_at) / RFU HIST1H1D (11736915_at) / Fold change /veh HIST1H1D (11736915_at) / RFU CASKIN2 (11723855_a_at) / Fold change /veh CASKIN2 (11723855_a_at) / RFU LOC730098 (11760151_x_at) / Fold change /veh LOC730098 (11760151_x_at) / RFU OR4N2 (11742367_at) / Fold change /veh OR4N2 (11742367_at) / RFU PRRT2 (11749266_a_at) / Fold change /veh PRRT2 (11749266_a_at) / RFU SNX32 (11753110_a_at) / Fold change /veh SNX32 (11753110_a_at) / RFU CDHR5 (11726645_a_at) / Fold change /veh CDHR5 (11726645_a_at) / RFU RCAN1 (11760418_a_at) / Fold change /veh RCAN1 (11760418_a_at) / RFU FAM167A (11723789_a_at) / Fold change /veh FAM167A (11723789_a_at) / RFU FAM26E (11764081_at) / Fold change /veh FAM26E (11764081_at) / RFU ISYNA1 (11749810_s_at) / Fold change /veh ISYNA1 (11749810_s_at) / RFU ACY1 (11761880_at) / Fold change /veh ACY1 (11761880_at) / RFU 11764098_at / Fold change /veh 11764098_at / RFU SAMD14 (11745864_x_at) / Fold change /veh SAMD14 (11745864_x_at) / RFU NPB (11741838_a_at) / Fold change /veh NPB (11741838_a_at) / RFU TMPRSS6 (11731388_a_at) / Fold change /veh TMPRSS6 (11731388_a_at) / RFU KRTAP10-2 (11738614_at) / Fold change /veh KRTAP10-2 (11738614_at) / RFU ARHGAP8 /// PRR5-ARHGAP8 (11727945_x_at) / Fold change /veh ARHGAP8 /// PRR5-ARHGAP8 (11727945_x_at) / RFU KRTAP5-7 /// NADSYN1 (11734609_at) / Fold change /veh KRTAP5-7 /// NADSYN1 (11734609_at) / RFU RASL12 (11751679_a_at) / Fold change /veh RASL12 (11751679_a_at) / RFU CDKN2B (11736163_a_at) / Fold change /veh CDKN2B (11736163_a_at) / RFU PRF1 (11729649_at) / Fold change /veh PRF1 (11729649_at) / RFU, ZNF638 /// ZNF638-IT1 / Fold change vs veh, ZNF638 /// ZNF638-IT1 / RFU, PANK3 / Fold change vs veh, PANK3 / RFU, SH3YL1 / Fold change vs veh, SH3YL1 / RFU, ZEB2 / Fold change vs veh, ZEB2 / RFU, NRIP1 / Fold change vs veh, NRIP1 / RFU, PTTG1IP / Fold change vs veh, PTTG1IP / RFU, CAPN2 / Fold change vs veh, CAPN2 / RFU, MED14 / Fold change vs veh, MED14 / RFU, SNORA58 / Fold change vs veh, SNORA58 / RFU, C1orf63 / Fold change vs veh, C1orf63 / RFU, LRRFIP1 / Fold change vs veh, LRRFIP1 / RFU, NDUFAF7 / Fold change vs veh, NDUFAF7 / RFU, SLC12A2 / Fold change vs veh, SLC12A2 / RFU, IBTK / Fold change vs veh, IBTK / RFU, ESF1 / Fold change vs veh, ESF1 / Fold change vs veh, TMEM50B / RFU, TAOK1 / Fold change vs veh, TAOK1 / RFU, ACBD3 / Fold change vs veh, ACBD3 / RFU, TMA16 / Fold change vs veh, TMA16 / RFU, RWDD3 / Fold change vs veh, RWDD3 / RFU, BCAT1 / Fold change vs veh, BCAT1 / RFU, EDEM3 / Fold change vs veh, EDEM3 / RFU, TMEM33 / Fold change vs veh, TMEM33 / RFU, WDR75 / Fold change vs veh, WDR75 / RFU, AHCTF1 / Fold change vs veh, AHCTF1 / RFU, TFRC / Fold change vs veh, TFRC / RFU, ZDHHC17 / Fold change vs veh, ZDHHC17 / RFU, NOM1 / Fold change vs veh, NOM1 / RFU, ARL8B / Fold change vs veh, ARL8B / RFU, ZBTB11 / Fold change vs veh, ZBTB11 / RFU, TAMM41 / Fold change vs veh, TAMM41 / RFU, KIAA1704 /// LOC100996395 / Fold change vs veh, KIAA1704 /// LOC100996395 / RFU, ING1 / Fold change vs veh, ING1 / RFU, TRMT61B / Fold change vs veh, TRMT61B / RFU, FUBP3 / Fold change vs veh, FUBP3 / RFU, TP53 / Fold change vs veh, TP53 / RFU, TNKS2 / Fold change vs veh, TNKS2 / RFU, ZFP14 / Fold change vs veh, ZFP14 / RFU, ACTR2 / Fold change vs veh, ACTR2 / RFU, PPP3R1 / Fold change vs veh, PPP3R1 / RFU, PIK3R1 / Fold change vs veh, PIK3R1 / RFU, HNRNPA1 / Fold change vs veh, HNRNPA1 / RFU, RNF170 / Fold change vs veh, RNF170 / RFU, ZNF28 / Fold change vs veh, ZNF28 / RFU, RNGTT / Fold change vs veh, RNGTT / RFU, OGT / Fold change vs veh, OGT / RFU, BRD1 / Fold change vs veh, BRD1 / RFU, MARS / Fold change vs veh, MARS / RFU, ZNF655 / Fold change vs veh, ZNF655 / RFU, FAHD1 / Fold change vs veh, FAHD1 / RFU, BDP1 / Fold change vs veh, BDP1 / RFU, LRRCC1 / Fold change vs veh, LRRCC1 / RFU, ARID1A / Fold change vs veh, ARID1A / RFU, ZNF146 / Fold change vs veh, ZNF146 / RFU, ZNF330 / Fold change vs veh, ZNF330 / RFU, GPN3 / Fold change vs veh, GPN3 / RFU, C9orf123 / Fold change vs veh, C9orf123 / RFU, N4BP2L2 / Fold change vs veh, N4BP2L2 / RFU, ARFIP1 / Fold change vs veh, ARFIP1 / RFU, FAM179B / Fold change vs veh, FAM179B / RFU, BCL10 / Fold change vs veh, BCL10 / RFU, UHRF1BP1L / Fold change vs veh, UHRF1BP1L / RFU, BET1 / Fold change vs veh, BET1 / RFU, CNOT2 / Fold change vs veh, CNOT2 / RFU, ZNF268 / Fold change vs veh, ZNF268 / Fold change vs veh, ZNF507 / RFU, DGCR2 / Fold change vs veh, DGCR2 / RFU, WDSUB1 / Fold change vs veh, WDSUB1 / Fold change vs veh, HSP90B1 /// MIR3652 / RFU, ADSS / Fold change vs veh, ADSS / RFU, GK / Fold change vs veh, GK / RFU, ZNF148 / Fold change vs veh, ZNF148 / RFU, TAF9 / Fold change vs veh, TAF9 / RFU, SLC1A5 / Fold change vs veh, SLC1A5 / RFU, SLMO2 / Fold change vs veh, SLMO2 / RFU, ABCC4 / Fold change vs veh, ABCC4 / RFU, LOC101060439 /// RAP1B / Fold change vs veh, LOC101060439 /// RAP1B / RFU, RFX7 / Fold change vs veh, RFX7 / RFU, GTPBP10 / Fold change vs veh, GTPBP10 / RFU, CNEP1R1 / Fold change vs veh, CNEP1R1 / RFU, BIVM-ERCC5 /// ERCC5 / Fold change vs veh, BIVM-ERCC5 /// ERCC5 / RFU, ILF3 / Fold change vs veh, ILF3 / RFU 11762660_at / Fold change /veh 11762660_at / RFU VCAN (11757783_s_at) / Fold change /veh VCAN (11757783_s_at) / RFU DDX43 (11728927_at) / Fold change /veh DDX43 (11728927_at) / RFU KRT8 (11758188_x_at) / Fold change /veh KRT8 (11758188_x_at) / RFU NKD1 (11759106_at) / Fold change /veh NKD1 (11759106_at) / RFU SRD5A1 (11742802_a_at) / Fold change /veh SRD5A1 (11742802_a_at) / RFU TPSAB1 /// TPSB2 (11721975_s_at) / Fold change /veh TPSAB1 /// TPSB2 (11721975_s_at) / RFU GSTM3 (11746129_a_at) / Fold change /veh GSTM3 (11746129_a_at) / RFU IL23R (11737362_x_at) / Fold change /veh IL23R (11737362_x_at) / RFU TMEM51 (11727254_a_at) / Fold change /veh TMEM51 (11727254_a_at) / RFU PIWIL2 (11732686_x_at) / Fold change /veh PIWIL2 (11732686_x_at) / RFU ORM1 (11744905_x_at) / Fold change /veh ORM1 (11744905_x_at) / RFU CCDC152 (11743942_at) / Fold change /veh CCDC152 (11743942_at) / RFU ECM1 (11717891_a_at) / Fold change /veh ECM1 (11717891_a_at) / RFU IL23R (11748794_a_at) / Fold change /veh IL23R (11748794_a_at) / RFU TNFAIP8L3 (11732012_x_at) / Fold change /veh TNFAIP8L3 (11732012_x_at) / RFU MBOAT4 (11741988_at) / Fold change /veh MBOAT4 (11741988_at) / RFU 11764193_at / Fold change /veh 11764193_at / RFU TMEM53 (11763286_at) / Fold change /veh TMEM53 (11763286_at) / RFU MAGEB2 (11727129_at) / Fold change /veh MAGEB2 (11727129_at) / RFU TMEM200A (11744735_a_at) / Fold change /veh TMEM200A (11744735_a_at) / RFU CCDC152 (11751479_a_at) / Fold change /veh CCDC152 (11751479_a_at) / RFU FAM211A (11726209_a_at) / Fold change /veh FAM211A (11726209_a_at) / RFU RGS16 (11746705_a_at) / Fold change /veh RGS16 (11746705_a_at) / RFU VCAN (11755009_s_at) / Fold change /veh VCAN (11755009_s_at) / RFU RHOB (11743442_s_at) / Fold change /veh RHOB (11743442_s_at) / RFU RGS16 (11720943_a_at) / Fold change /veh RGS16 (11720943_a_at) / RFU RGS16 (11720944_at) / Fold change /veh RGS16 (11720944_at) / RFU, VPS4B / Fold change vs veh, VPS4B / RFU, CREB1 / Fold change vs veh, CREB1 / RFU, DNAJC13 / Fold change vs veh, DNAJC13 / RFU, GNAQ / Fold change vs veh, GNAQ / RFU, CDK5R1 / Fold change vs veh, CDK5R1 / RFU, ZRANB3 / Fold change vs veh, ZRANB3 / RFU, CUL4A / Fold change vs veh, CUL4A / RFU, CCNY / Fold change vs veh, CCNY / RFU, UFL1 / Fold change vs veh, UFL1 / RFU, COG3 / Fold change vs veh, COG3 / RFU, DIAPH2 / Fold change vs veh, DIAPH2 / RFU, SKA2 / Fold change vs veh, SKA2 / RFU, AFF3 / Fold change vs veh, AFF3 / RFU, LMF1 / Fold change vs veh, LMF1 / RFU, IPO11 / Fold change vs veh, IPO11 / RFU, DFFB / Fold change vs veh, DFFB / RFU, FOXP1 / Fold change vs veh, FOXP1 / RFU, CARD8 / Fold change vs veh, CARD8 / RFU, STRN3 / Fold change vs veh, STRN3 / RFU, ADK / Fold change vs veh, ADK / RFU, RASSF2 / Fold change vs veh, RASSF2 / RFU, WIPF1 / Fold change vs veh, WIPF1 / RFU, LARP1B / Fold change vs veh, LARP1B / RFU, RASA1 / Fold change vs veh, RASA1 / RFU, RB1 / Fold change vs veh, RB1 / RFU, PPFIA1 / Fold change vs veh, PPFIA1 / RFU, MAT2A / Fold change vs veh, MAT2A / RFU, CCT5 / Fold change vs veh, CCT5 / RFU, WDR92 / Fold change vs veh, WDR92 / RFU, CUX1 / Fold change vs veh, CUX1 / RFU, TTC7A / Fold change vs veh, TTC7A / RFU, TMEM135 / Fold change vs veh, TMEM135 / RFU, DEPTOR / Fold change vs veh, DEPTOR / RFU, CPM / Fold change vs veh, CPM / RFU, DNAJB6 / Fold change vs veh, DNAJB6 / RFU, CACNA2D3 / Fold change vs veh, CACNA2D3 / RFU, DTX4 / Fold change vs veh, DTX4 / RFU, TFCP2 / Fold change vs veh, TFCP2 / RFU, GMCL1 /// GMCL1P1 / Fold change vs veh, GMCL1 /// GMCL1P1 / RFU, AEBP2 / Fold change vs veh, AEBP2 / RFU, SNHG1 /// SNORD22 /// SNORD25 /// SNORD26 /// SNORD27 /// SNORD28 /// SNORD29 /// SNORD31 / Fold change vs veh, SNHG1 /// SNORD22 /// SNORD25 /// SNORD26 /// SNORD27 /// SNORD28 /// SNORD29 /// SNORD31 / Fold change (Aza/veh), C12orf56 (ProbeSet 11735607_a_at) / Fold change (ACY-1035/veh), C12orf56 (ProbeSet 11735607_a_at) / Fold change (Aza/veh), FGFR1OP (ProbeSet 11751329_s_at) / Fold change (ACY-1035/veh), FGFR1OP (ProbeSet 11751329_s_at) / Fold change (Aza/veh), VPS36 (ProbeSet 11739960_a_at) / Fold change (ACY-1035/veh), VPS36 (ProbeSet 11739960_a_at) / RFU SYPL1 (11715823_x_at) / Fold change /veh SYPL1 (11715823_x_at) / RFU IGFBP7 (11715501_s_at) / Fold change /veh IGFBP7 (11715501_s_at) / RFU REEP3 (11722064_at) / Fold change /veh REEP3 (11722064_at) / RFU IGLL1 (11728026_x_at) / Fold change /veh IGLL1 (11728026_x_at): dose or concentration left out as unconfirmed
# Details: MV-4-11 cells, 48 hours
compound,measurement,value
Nc1ncn([C@@H]2O[C@H](CO)[C@@H](O)[C@H]2O)c(=O)n1 [azacitidine],RFU ZSCAN30 (11745921_a_at),8.95 RFU
